Data on eleven molecules can be found in patent US10206907B2, “Compounds useful for the treatment of degenerative and inflammatory diseases” (GALAPAGOS NV, priority 2008, dated 2019).

The term IC50 denotes the point on the concentration scale where inhibition reaches its midpoint.

Test [1] has as its target Recombinant human JAK1 catalytic domain (Homo sapiens (Human), UniProt P23458). Nature of the test: JAK1 inhibition assay. Conditions: semi-quantitative score. It is filed as biochemical. The procedure, abridged: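 Radiometric assay read by scintillation counting after phosphoric-acid washes. Percent inhibition calculated from cpm relative to vehicle and 10 μM staurosporine control. IC50 derived from compound dose-dilution series.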

The target of test [2] is Recombinant human JAK2 catalytic domain (Homo sapiens (Human), UniProt O60674). Nature of the test: JAK2 inhibition assay. It is filed as biochemical. Conditions: semi-quantitative score. As for the experimental part:
After 90 min at 30° C., reactions were stopped by adding of 25 μL/well of 150 mM phosphoric acid. […] Plates were washed 6 times with 300 μL per well of a 75 mM phosphoric acid solution and the bottom of the plates was sealed. 40 μL/well of Microscint-20 was added, the top of the plates was sealed and readout was performed using the Topcount (Perkin Elmer). Kinase activity was calculated by subtracting counts per minute (cpm) obtained in the presence of a positive control inhibitor (10 μM staurosporine) from cpm obtained in the presence of vehicle. The ability of a test compound to inhibit this activity was determined as: Percentage inhibition=((cpm determined for sample with test compound present−cpm determined for sample with positive control inhibitor) divided by (cpm determined in the presence of vehicle−cpm determined for sample with positive control inhibitor))*100%.
Dose dilution series were prepared for the compounds enabling the testing of dose-response effects in the JAK2 assay and the calculation of the IC50 for each compound.

The structures appear in SMILES notation.

Chain of Recombinant human JAK2 catalytic domain (O60674 808-1132): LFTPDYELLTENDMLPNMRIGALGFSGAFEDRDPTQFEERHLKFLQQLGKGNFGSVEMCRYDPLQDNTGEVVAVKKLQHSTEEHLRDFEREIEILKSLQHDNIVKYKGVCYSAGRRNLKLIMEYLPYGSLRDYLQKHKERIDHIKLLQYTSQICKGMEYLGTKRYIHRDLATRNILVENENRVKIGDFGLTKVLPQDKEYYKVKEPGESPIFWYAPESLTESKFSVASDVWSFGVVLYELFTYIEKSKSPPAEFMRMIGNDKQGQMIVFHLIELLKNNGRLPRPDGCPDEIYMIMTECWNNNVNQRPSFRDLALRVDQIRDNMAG
Chain of Recombinant human JAK1 catalytic domain (P23458 850-1154): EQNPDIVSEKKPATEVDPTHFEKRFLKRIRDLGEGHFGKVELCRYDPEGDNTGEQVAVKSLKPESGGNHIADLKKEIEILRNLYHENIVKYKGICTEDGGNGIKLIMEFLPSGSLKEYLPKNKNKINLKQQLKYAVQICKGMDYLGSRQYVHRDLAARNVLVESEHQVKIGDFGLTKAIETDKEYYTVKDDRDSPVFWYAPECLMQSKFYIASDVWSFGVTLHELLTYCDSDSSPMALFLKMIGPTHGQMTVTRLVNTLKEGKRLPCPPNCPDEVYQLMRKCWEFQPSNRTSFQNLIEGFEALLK

As for `O=C(Nc1nc2cccc(-c3ccc(CN4CC(N5CCOCC5)C4)cc3)n2n1)C1CC1` [Compound 300, Cyclopropanecarboxylic acid {5-[4-(3-morpholin-4-yl-azetidin-1-ylmethyl)-phenyl]-[1,2,4]triazolo[1,5-a]pyridin-2-yl}-amide], the IC50 in test [1] and in test [2] was greater than 1000 nM in each case.

As for `O=C(Nc1nc2cccc(-c3ccc(CN4CC[C@H](O)C4)cc3)n2n1)C1CC1` [Compound 305, Cyclopropanecarboxylic acid {5-[4-((S)-3-hydroxy-pyrrolidin-1-ylmethyl)-phenyl]-[1,2,4]triazolo[1,5-a]pyridin-2-yl}-amide], the IC50 in test [1] was 101 to 500 nM; in test [2], greater than 1000 nM.

As to `O=C(Nc1nc2cccc(-c3ccc(CN4CC[C@@H](O)C4)cc3)n2n1)C1CC1` [Compound 307, Cyclopropanecarboxylic acid {5-[4-((R)-3-hydroxy-pyrrolidin-1-ylmethyl)-phenyl]-[1,2,4]triazolo[1,5-a]pyridin-2-yl}-amide], the IC50 is 101 to 500 nM in test [1] and greater than 1000 nM in test [2].

As for `CN1CCN(C(=O)NCc2ccc(-c3cccc4nc(NC(=O)C5CC5)nn34)cc2)CC1` [Compound 308, 4-Methyl-piperazine-1-carboxylic acid 4-[2-(cyclopropanecarbonyl-amino)-[1,2,4]triazolo[1,5-a]pyridin-5-yl]-benzylamide], the IC50 in test [1] is 101 to 500 nM; in test [2] it was greater than 1000 nM.

With `O=C(Nc1nc2cccc(-c3ccc(CNC(=O)N4CCOCC4)cc3)n2n1)C1CC1` [Compound 309, Morpholine-4-carboxylic acid 4-[2-(cyclopropanecarbonyl-amino)-[1,2,4]triazolo[1,5-a]pyridin-5-yl]-benzylamide], the results for the IC50 in test [1] and in test [2] were 101 to 500 nM and 501 to 1000 nM, respectively.

`O=C1CN(Cc2ccc(-c3cccc4nc(NC(=O)C5CC5)nn34)cc2)CCN1` [Compound 311, Cyclopropanecarboxylic acid {5-[4-(3-oxo-piperazin-1-ylmethyl)-phenyl]-[1,2,4]triazolo[1,5-a]pyridin-2-yl}-amide]: the IC50 in test [1] and in test [2] was 101 to 500 nM each time.

On to `O=C(Nc1nc2cccc(-c3ccc(CNC4CC4)cc3)n2n1)C1CC1` [Compound 312, Cyclopropanecarboxylic acid [5-(4-cyclopropylaminomethyl-phenyl)-[1,2,4]triazolo[1,5-a]pyridin-2-yl]-amide], for which the IC50 in test [1] and in test [2] was 101 to 500 nM each time.

As for `CC1(C)CN(Cc2ccc(-c3cccc4nc(NC(=O)C5CC5)nn34)cc2)C1` [Compound 314, Cyclopropanecarboxylic acid {5-[4-(3,3-dimethyl-azetidin-1-ylmethyl)-phenyl]-[1,2,4]triazolo[1,5-a]pyridin-2-yl}-amide], the results for the IC50 in test [1] and in test [2] were 101 to 500 nM and greater than 1000 nM, respectively.

Regarding `O=C(Nc1nc2cccc(-c3ccc(CN4CC(F)(F)C4)cc3)n2n1)C1CC1` [Compound 315, Cyclopropanecarboxylic acid {5-[4-(3,3-difluoro-azetidin-1-ylmethyl)-phenyl]-[1,2,4]triazolo[1,5-a]pyridin-2-yl}-amide], the IC50 in test [1] and in test [2] was 101 to 500 nM throughout.

Consider `O=C(Nc1nc2cccc(-c3ccc(CC(=O)N4CCC4)cc3)n2n1)C1CC1` [Compound 318, Cyclopropanecarboxylic acid {5-[4-(2-azetidin-1-yl-2-oxo-ethyl)-phenyl]-[1,2,4]triazolo[1,5-a]pyridin-2-yl}-amide], for which the IC50 in test [1] and in test [2] was 101 to 500 nM in each case.

Turning to `CC1CC(C)CN(C(=O)Cc2ccc(-c3cccc4nc(NC(=O)C5CC5)nn34)cc2)C1` (stereo not shown) [Compound 320, Cyclopropanecarboxylic acid (5-{4-[2-(3,5-dimethyl-piperidin-1-yl)-2-oxo-ethyl]-phenyl}-[1,2,4]triazolo[1,5-a]pyridin-2-yl)-amide], the IC50 in test [1] and in test [2] was 101 to 500 nM in each case.
